# Laboratory results reported in US6596889B1, “Nitrates of bis-platinum complexes with polyamine ligands” (Novuspharma S.p.A., priority 1999, dated 2003).
# Counter-ions that a name gives are not always drawn.
# Assay: HPLC stability following heating at 40° C. for 12 days under atmospheric pressure
# Assay type: physicochemical
# Experimental: column: Lichrospher RP8 (5 μm), 125×4 mm
# The following table reports the HPLC data concerning the stability of Compound 1 and of Compound A (prepared as described in example 16 of WO 98/03519) following heating at 40° C. for 12 days under atmospheric pressure.
# The used chromatographic method is that described in Example 3 and Example 4. The values of […] are in percent area.
# [1] = 12 days 40° C., atmospheric pressure
Compound,HPLC mean peak area [1] [percent area],"main impurity, retention time 7 min, HPLC area [1] [percent area]","main impurity, retention time 8 min, HPLC area [1] [percent area]","main impurity, retention time 12 min, HPLC area [1] [percent area]","main impurity, retention time 14 min, HPLC area [1] [percent area]","main impurity, retention time 30 min, HPLC area [1] [percent area]","main impurity, retention time 31 min, HPLC area [1] [percent area]",HPLC mean peak area (t = 0) [percent area],"main impurity, retention time 7 min, HPLC area (t = 0) [percent area]","main impurity, retention time 8 min, HPLC area (t = 0) [percent area]","main impurity, retention time 12 min, HPLC area (t = 0) [percent area]","main impurity, retention time 14 min, HPLC area (t = 0) [percent area]","main impurity, retention time 30 min, HPLC area (t = 0) [percent area]","main impurity, retention time 31 min, HPLC area (t = 0) [percent area]"
"[NH2][Pt+]([NH2])([Cl])[NH]CCC[NH2+]CCCC[NH2+]CCC[NH][Pt+]([NH2])([NH2])[Cl] [Compound 1, bis{trans(diammine)(chloro)platinum(II)}-μ-(1,12-diamino-4,9-diazadodecane-N^1, N^12) dinitrate salt.2HNO3]",98.4,0.1,0.1,0.2,0.9,<0.1,0.2,98.5,0.1,0.1,0.1,0.8,<0.1,
"bis{trans(diammine)(chloro)platinum(II)}-μ-(1,12-diamino-4,9-diazadodecane-N^1, N^12)dichloride salt.2HCl [Compound A]",89.8,0.8,1.6,0.6,0.8,2.8,1.7,92.5,0.1,0.2,0.3,1.3,2.3,0.7
